Assays:
CYP2B6 = target: T1, CYP2B6 (Homo sapiens, UniProt P20813); assay: CYP2B6 inhibition in human liver microsomes (bupropion probe); assay type: in vitro ADME; details: human liver microsomes 0.1 mg/mL, bupropion 110 μM, 0.1-25 μM compound
T1 construct: from tissue; host or cells: human liver microsomes
T1 sequence (P20813 1-491): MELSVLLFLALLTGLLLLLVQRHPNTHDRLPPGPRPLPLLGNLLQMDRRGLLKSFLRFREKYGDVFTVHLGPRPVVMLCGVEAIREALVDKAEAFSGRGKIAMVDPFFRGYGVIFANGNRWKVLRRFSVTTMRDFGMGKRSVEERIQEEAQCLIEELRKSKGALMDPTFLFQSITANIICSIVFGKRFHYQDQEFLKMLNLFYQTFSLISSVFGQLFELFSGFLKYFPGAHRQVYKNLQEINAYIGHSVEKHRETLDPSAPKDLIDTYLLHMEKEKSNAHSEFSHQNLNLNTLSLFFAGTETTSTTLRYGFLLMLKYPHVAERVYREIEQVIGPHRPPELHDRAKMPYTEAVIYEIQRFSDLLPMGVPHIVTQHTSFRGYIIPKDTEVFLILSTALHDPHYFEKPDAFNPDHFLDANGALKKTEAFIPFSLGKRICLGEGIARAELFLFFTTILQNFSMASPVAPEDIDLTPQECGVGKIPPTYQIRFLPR
Protocol: The compound of Formula (I) (Example 1) was assessed for CYP2C8, CYP3A4, and CYP2B6 inhibition and was compared against Comparative Example 1.
Six test compound concentrations (0.1, 0.25, 1, 2.5, 10, 25 μM in DMSO; final DMSO concentration 0.3%) are incubated with human liver microsomes (0.1 mg/mL) and NADPH (1 mM) in the presence of the probe substrate bupropion (110 μM) for 5 min at 37° C. The selective CYP2B6 inhibitor, ticlopidine, is screened alongside the test compounds as a positive control.
For each of the CYP2B6, CYP2C8, and CYP3A4 incubations, the reactions were terminated by methanol addition. The samples were then centrifuged and analyzed by LC-MS/MS. Formic acid in deionised water (final concentration 0.1%) containing internal standard was added to the final sample prior to analysis. A decrease in the formation of the metabolites compared to vehicle control was used to calculate IC50.

human UGT1A1 = target: T2, human UGT1A1 (Homo sapiens, UniProt P22309); assay: UGT1A1 inhibition (estradiol 3-glucuronide formation, Supersomes); assay type: in vitro ADME
T2 construct: purchased
T2 sequence (P22309 26-533): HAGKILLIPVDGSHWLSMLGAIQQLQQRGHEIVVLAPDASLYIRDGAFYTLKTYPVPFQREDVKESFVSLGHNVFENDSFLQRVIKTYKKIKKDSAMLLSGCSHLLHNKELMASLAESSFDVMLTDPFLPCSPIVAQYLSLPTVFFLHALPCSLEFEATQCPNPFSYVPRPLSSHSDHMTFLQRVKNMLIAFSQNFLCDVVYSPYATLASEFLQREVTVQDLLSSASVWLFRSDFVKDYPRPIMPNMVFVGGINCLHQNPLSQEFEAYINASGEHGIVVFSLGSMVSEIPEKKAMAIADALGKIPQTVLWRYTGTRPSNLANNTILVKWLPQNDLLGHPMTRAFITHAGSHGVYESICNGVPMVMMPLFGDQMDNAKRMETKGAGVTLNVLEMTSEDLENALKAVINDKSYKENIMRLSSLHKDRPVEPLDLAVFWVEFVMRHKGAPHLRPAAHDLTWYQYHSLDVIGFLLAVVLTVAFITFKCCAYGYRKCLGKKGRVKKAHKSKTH
Protocol: The compound of Formula (I) (Example 1) was tested for inhibition of UGT1A1 and was compared against Comparative Example 1. To perform the assay, sample compound was incubated with human UGT1A1 expressed Supersomes™ (0.25 mg/mL), alamethicin (25 μg/mg) and UDPGA (5 mM) in the presence of probe substrate estradiol (10 μM) for 30 mins at 37° C. A selective UGT1A1 inhibitor, atazanavir, was screened alongside the test compounds as a positive control. The reactions were terminated by quenching an aliquot into two volumes of methanol. The samples were centrifuged at 2500 rpm for 30 mins at 4° C., and aliquots of the supernatant were diluted with formic acid in deionised water (final formic acid concentration 0.1%) and internal standard. Cyprotex generic LC-MS/MS conditions were used to monitor estradiol 3-glucuronide formation. A decrease in the formation of the metabolite compared to vehicle control is used to calculate an IC50 value.

| CYP2B6 inhibition (CYP2B6) | IC50 (human UGT1A1; probe substrate estradiol 10 μM, 30 mins at 37° C.) [nM] | Compound | UGT1A1 inhibition, comparison of the compounds (human UGT1A1; Example 1 compared against Comparative Example 1) |
| --- | --- | --- | --- |
| inhibited CYP2B6 | – | O=C(O)c1cnc(N2CC(O)(c3ccc(OCc4c(-c5c(Cl)cc(F)cc5Cl)noc4C4CC4)cc3Cl)C2)c(F)c1 [Comparative Example 1, 6-(3-(2-chloro-4-((5-cyclopropyl-3-(2,6-dichloro-4-fluorophenyl)isoxazol-4-yl)methoxy)phenyl)-3-hydroxyazetidin-1-yl)-5-fluoronicotinic acid] | – |
| did not inhibit CYP2B6 | 440 | O=C(O)c1ccc(N2CC(O)(c3ccc(OCc4c(-c5c(Cl)cc(F)cc5Cl)noc4C4CC4)cc3Cl)C2)nc1 [Example 1, 6-(3-(2-chloro-4-((5-cyclopropyl-3-(2,6-dichloro-4-fluorophenyl)isoxazol-4-yl)methoxy)phenyl)-3-hydroxyazetidin-1-yl)nicotinic acid] | most potent UGT1A1 inhibition of the compounds compared |

From patent US20220204491A1, “FXR (NR1H4) MODULATING COMPOUNDS” (Gilead Sciences, Inc., priority 2019, published 2022)
